± gives the expanded uncertainty stated by the source.
Tests used:
[1] = molar heat capacity at constant pressure; details: 101.33 kPa, Liquid, Small sample (50 mg) DSC
[2] = for mass density / viscosity: Liquid; for mass density: Vibrating tube method; for viscosity: 101.33 kPa, Capillary tube (Ostwald / Ubbelohde) method; for surface tension liquid-gas: Ring tensiometer

CCCC[n+]1cccc(C)c1.N#C[C-](C#N)C#N [1-butyl-3-methylpyridinium tricyanomethanide]
Details	mass density [kg/m3]	molar heat capacity at constant pressure [J/K/mol]	surface tension liquid-gas [mN/m]	viscosity [mPa·s]
[1], 298 K	–	468 ± 47	–	–
[1], 323 K	–	479 ± 48	–	–
[2], 283.15 K	1052.57 ± 1.3	–	–	–
[2], 293.15 K	1045.79 ± 1.3	–	–	–
[2], 295.15 K	–	–	–	51.42 ± 2.2
[2], 296.05 K	–	–	27.7 ± 0.6	–
[2], 298.15 K	–	–	–	43.92 ± 1.9
[2], 303.15 K	1039.12 ± 1.3	–	–	34.87 ± 1.5
[2], 305.75 K	–	–	27.3 ± 0.6	–
[2], 308.15 K	–	–	–	28.22 ± 1.2
[2], 313.15 K	1032.55 ± 1.3	–	–	23.27 ± 0.98
[2], 313.75 K	–	–	26.9 ± 0.6	–
[2], 320.65 K	–	–	26.6 ± 0.6	–
[2], 323.15 K	1026.1 ± 1.3	–	–	16.25 ± 0.68
[2], 329.85 K	–	–	26.3 ± 0.6	–
[2], 333.15 K	1019.76 ± 1.3	–	–	12.19 ± 0.51
[2], 338.15 K	–	–	26 ± 0.6	–
[2], 343.15 K	1013.52 ± 1.3	–	–	9.56 ± 0.4
[2], 346.15 K	–	–	25.5 ± 0.5	–
[2], 353.15 K	1007.34 ± 1.3	–	–	7.54 ± 0.31
[2], 356.15 K	–	–	25.1 ± 0.5	–
[2], 363.15 K	1001.13 ± 1.3	–	–	6.07 ± 0.25
